# What was measured:
# ACE = ACE (Homo sapiens, UniProt P12821); assay: ACE inhibitory activity of IPP per unit weight relative to VPP; type: biochemical
# [1] = tested on: spontaneously hypertensive rat (SHR); settings: J. Dairy Sci. 78:1253-1257(1995); cited from earlier work
# ACE, sequence (P12821 30-1306, species assumed): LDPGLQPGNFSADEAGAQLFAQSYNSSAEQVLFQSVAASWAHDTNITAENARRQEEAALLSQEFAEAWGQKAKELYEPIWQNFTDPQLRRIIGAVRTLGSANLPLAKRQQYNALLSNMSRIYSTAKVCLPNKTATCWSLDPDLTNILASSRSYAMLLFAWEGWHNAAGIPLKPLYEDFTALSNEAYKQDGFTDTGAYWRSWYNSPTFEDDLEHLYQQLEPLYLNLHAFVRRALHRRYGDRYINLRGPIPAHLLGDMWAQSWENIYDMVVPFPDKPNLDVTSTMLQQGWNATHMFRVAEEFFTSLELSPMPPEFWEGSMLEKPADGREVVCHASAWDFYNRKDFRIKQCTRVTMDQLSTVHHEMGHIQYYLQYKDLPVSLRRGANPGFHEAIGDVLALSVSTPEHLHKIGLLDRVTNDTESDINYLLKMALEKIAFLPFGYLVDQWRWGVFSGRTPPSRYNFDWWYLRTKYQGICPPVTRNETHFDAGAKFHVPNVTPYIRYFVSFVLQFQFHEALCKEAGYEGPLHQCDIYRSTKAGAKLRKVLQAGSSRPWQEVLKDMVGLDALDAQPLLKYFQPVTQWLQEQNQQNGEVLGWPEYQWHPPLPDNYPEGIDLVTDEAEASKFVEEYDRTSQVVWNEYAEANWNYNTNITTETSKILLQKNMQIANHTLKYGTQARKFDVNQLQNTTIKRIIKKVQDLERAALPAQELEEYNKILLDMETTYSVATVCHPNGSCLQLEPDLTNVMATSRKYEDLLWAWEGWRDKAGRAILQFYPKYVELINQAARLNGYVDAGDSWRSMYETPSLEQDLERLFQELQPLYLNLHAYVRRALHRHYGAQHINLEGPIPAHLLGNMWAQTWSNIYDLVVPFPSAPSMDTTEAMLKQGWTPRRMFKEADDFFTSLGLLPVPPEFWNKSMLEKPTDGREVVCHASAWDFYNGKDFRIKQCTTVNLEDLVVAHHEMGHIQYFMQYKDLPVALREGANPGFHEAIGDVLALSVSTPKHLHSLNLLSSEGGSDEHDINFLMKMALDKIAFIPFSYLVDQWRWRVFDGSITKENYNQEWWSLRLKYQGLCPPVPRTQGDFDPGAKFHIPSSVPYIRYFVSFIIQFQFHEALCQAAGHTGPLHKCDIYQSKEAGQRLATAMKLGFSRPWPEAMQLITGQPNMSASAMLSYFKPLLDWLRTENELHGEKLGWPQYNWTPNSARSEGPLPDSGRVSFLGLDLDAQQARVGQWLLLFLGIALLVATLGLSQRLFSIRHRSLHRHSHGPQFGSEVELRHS
Substance,ACE inhibitory activity per unit weight relative to VPP (ACE),Hypotensive effect [1]
Ile-Pro-Pro [IPP],1.7 times that of VPP,strong hypotensive effect
Val-Pro-Pro [VPP],,strong hypotensive effect
